Read-outs that look alike come from different tables or passages of the source.
How the values were obtained:
[1] = tested on: HCV GT1a(H77) replicon; assay: HCV replicon luciferase reporter assay, genotype 1a; format: cell-based, HCV genotype 1a; settings: Hepatitis C virus, 72 h, HUH-7 cells, Renilla luciferase, 3 days incubation
How it was run: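 Huh-7 cells stably carried a GT1a(H77) Renilla luciferase replicon with NS3 P1496L and NS5A S2204I adaptive mutations. Luminescence was read after 2 h with 7.5 μM EnduRen, and EC50 came from a four-parameter logistic fit; CC50 came from multiplexed Cell Titer-Blue (8 h).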

[2] = tested on: HCV GT1b(Con1) replicon; assay: HCV replicon luciferase reporter assay, genotype 1b; format: cell-based, HCV genotype 1b; settings: Hepatitis C virus, 72 h, HUH-7 cells, Renilla luciferase, 3 days incubation
How it was run: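 HUH-7 cells stably carrying a Con1 GT1b replicon with Renilla luciferase and Ser1179Ile adaptive mutation; 3.0×10^3 cells/well, DMEM 4% FCS, 0.5% DMSO, twenty-point 3-fold titration, 3 days 37 °C. Luminescence 2 h after 7.5 μM EnduRen; EC50 by four-parameter logistic fit. CC50 from multiplexed Cell Titer-Blue fluorescence (8 h).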

Structure (SMILES)	EC50 ([1]; read-out: LE_1a (EC50, range))	EC50 ([2]; read-out: LE_1b (EC50, range))	EC50 ([1]; read-out: LE_1a (EC50))	EC50 ([2]; read-out: LE_1b (EC50))
C[C@@H]1CC/C=C\[C@@H]2C[C@@]2(C(=O)NS(=O)(=O)C2(C)CC2)NC(=O)[C@@H]2C[C@@H](Oc3cc(-c4nccs4)ccn3)CN2C(=O)[C@@H](NC(=O)OC(C)(C)C(F)(F)F)[C@H](C)C1 [Compound 1031, 1,1,1-trifluoro-2-methylpropan-2-yl ((2R,6S,7R,9R,13aS,14aR,16aS,Z)-7,9-dimethyl-14a-(((1-methylcyclopropyl)sulfonyl)carbamoyl)-5,16-dioxo-2-((4-(thiazol-2-yl)pyridin-2-yl)oxy)-1,2,3,5,6,7,8,9,10,11,13a,14,14a,15,16,16a-hexadecahydrocyclopropa[e]pyrrolo[1,2-a][1,4]diazacyclopentadecin-6-yl)carbamate]	1.01 to 5 nM	0.51 to 1 nM	–	–
C[C@@H]1CC/C=C\[C@@H]2C[C@@]2(C(=O)NS(=O)(=O)C2(C)CC2)NC(=O)[C@@H]2C[C@@H](Oc3cc(-c4nccs4)nc(-c4nccs4)c3)CN2C(=O)[C@@H](NC(=O)OC(C)(C)C(F)(F)F)[C@H](C)C1 [Compound 1023, 1,1,1-trifluoro-2-methylpropan-2-yl ((2R,6S,7R,9R,13aS,14aR,16aS,Z)-2-((2,6-di(thiazol-2-yl)pyridin-4-yl)oxy)-7,9-dimethyl-14a-(((1-methylcyclopropyl)sulfonyl)carbamoyl)-5,16-dioxo-1,2,3,5,6,7,8,9,10,11,13a,14,14a,15,16,16a-hexadecahydrocyclopropa[e]pyrrolo[1,2-a][1,4]diazacyclopentadecin-6-yl)carbamate]	0.1 to 0.5 nM	0.1 to 0.5 nM	0.46 nM	0.4 nM
CC[C@@H]1C[C@H](C)CC/C=C\[C@@H]2C[C@@]2(C(=O)NS(=O)(=O)C2CC2)NC(=O)[C@@H]2C[C@@H](Oc3cc(-c4ccc(C(F)(F)F)cc4)nc(-c4nccs4)c3)CN2C(=O)[C@H]1NC(=O)OC(C)(C)C(F)(F)F [Compound 1053, 1,1,1-trifluoro-2-methylpropan-2-yl ((2R,6S,7R,9R,13aS,14aR,16aS,Z)-14a-((cyclopropylsulfonyl)carbamoyl)-7-ethyl-9-methyl-5,16-dioxo-2-((2-(thiazol-2-yl)-6-(4-(trifluoromethyl)phenyl)pyridin-4-yl)oxy)-1,2,3,5,6,7,8,9,10,11,13a,14,14a,15,16,16a-hexadecahydrocyclopropa[e]pyrrolo[1,2-a][1,4]diazacyclopentadecin-6-yl)carbamate]	1.01 to 5 nM	1.01 to 5 nM	–	–
CC[C@@H]1O[C@H](C)CC/C=C\[C@@H]2C[C@@]2(C(=O)NS(=O)(=O)C2(C)CC2)NC(=O)[C@@H]2C[C@@H](Oc3cc(-c4ccc(OC(C)C)cc4)nc(-c4cncs4)c3)CN2C(=O)[C@H]1NC(=O)OC1(C(F)(F)F)CCCOC1 (stereo partly drawn) [Compound 1034, 3-(trifluoromethyl)tetrahydro-2H-pyran-3-yl ((2R,6S,7S,9R,13aS,14aR,16aS,Z)-7-ethyl-2-((2-(4-isopropoxyphenyl)-6-(thiazol-5-yl)pyridin-4-yl)oxy)-9-methyl-14a-(((1-methylcyclopropyl)sulfonyl)carbamoyl)-5,16-dioxo-2,3,5,6,7,9,10,11,13a,14,14a,15,16,16a-tetradecahydro-1H-cyclopropa[i]pyrrolo[1,2-e][1,5,8]oxadiazacyclopentadecin-6-yl)carbamate]	1.01 to 5 nM	0.51 to 1 nM	–	–
CC[C@@H]1O[C@H](C)CC/C=C\[C@@H]2C[C@@]2(C(=O)NS(=O)(=O)C2(C)CC2)NC(=O)[C@@H]2C[C@@H](Oc3cc(-c4ccc(OC(C)C)cc4)nc(-c4cncs4)c3)CN2C(=O)[C@H]1NC(=O)OC(C)(C)C(F)(F)F [Compound 1033, 1,1,1-trifluoro-2-methylpropan-2-yl ((2R,6S,7S,9R,13aS,14aR,16aS,Z)-7-ethyl-2-((2-(4-isopropoxyphenyl)-6-(thiazol-5-yl)pyridin-4-yl)oxy)-9-methyl-14a-(((1-methylcyclopropyl)sulfonyl)carbamoyl)-5,16-dioxo-2,3,5,6,7,9,10,11,13a,14,14a,15,16,16a-tetradecahydro-1H-cyclopropa[i]pyrrolo[1,2-e][1,5,8]oxadiazacyclopentadecin-6-yl)carbamate]	1.01 to 5 nM	0.51 to 1 nM	–	–
CC[C@@H]1C[C@H](C)CC/C=C\[C@@H]2C[C@@]2(C(=O)NS(=O)(=O)C2CC2)NC(=O)[C@@H]2C[C@@H](Oc3cc(-c4ccc(C(F)(F)F)cc4)nc(-c4nccs4)c3)CN2C(=O)[C@H]1NC(=O)OC1(C(F)(F)F)CCCOC1 (stereo partly drawn) [Compound 1054, 3-(trifluoromethyl)tetrahydro-2H-pyran-3-yl ((2R,6S,7R,9R,13aS,14aR,16aS,Z)-14a-((cyclopropylsulfonyl)carbamoyl)-7-ethyl-9-methyl-5,16-dioxo-2-((2-(thiazol-2-yl)-6-(4-(trifluoromethyl)phenyl)pyridin-4-yl)oxy)-1,2,3,5,6,7,8,9,10,11,13a,14,14a,15,16,16a-hexadecahydrocyclopropa[e]pyrrolo[1,2-a][1,4]diazacyclopentadecin-6-yl)carbamate]	1.01 to 5 nM	0.51 to 1 nM	–	–
CC(C)Oc1ccc(-c2cc(O[C@@H]3C[C@H]4C(=O)N[C@]5(C(=O)NS(=O)(=O)C6(C)CC6)C[C@H]5/C=C\CC[C@@H](C)C[C@@H](C)[C@H](NC(=O)OC(C)(C)C(F)(F)F)C(=O)N4C3)cc(-c3nccs3)n2)cc1 [Compound 1007, 1,1,1-trifluoro-2-methylpropan-2-yl ((2R,6S,7R,9R,13aS,14aR,16aS,Z)-2-((2-(4-isopropoxyphenyl)-6-(thiazol-2-yl)pyridin-4-yl)oxy)-7,9-dimethyl-14a-(((1-methylcyclopropyl)sulfonyl)carbamoyl)-5,16-dioxo-1,2,3,5,6,7,8,9,10,11,13a,14,14a,15,16,16a-hexadecahydrocyclopropa[e]pyrrolo[1,2-a][1,4]diazacyclopentadecin-6-yl)carbamate]	1.01 to 5 nM	1.01 to 5 nM	–	–
COc1cccc(-c2cc(O[C@@H]3C[C@H]4C(=O)N[C@]5(C(=O)NS(=O)(=O)C6(C)CC6)C[C@H]5/C=C\CCC(C)C[C@@H](C)[C@H](NC(=O)OC(C)(C)C(F)(F)F)C(=O)N4C3)cc(-c3ccc(OC(C)C)cc3)n2)n1 (stereo in doubt) [Compound 1012, 1,1,1-trifluoro-2-methylpropan-2-yl ((2R,6S,7R,9R,13aS,14aR,16aS,Z)-2-((6-(4-isopropoxyphenyl)-6′-methoxy-[2,2′-bipyridin]-4-yl)oxy)-7,9-dimethyl-14a-(((1-methylcyclopropyl)sulfonyl)carbamoyl)-5,16-dioxo-1,2,3,5,6,7,8,9,10,11,13a,14,14a,15,16,16a-hexadecahydrocyclopropa[e]pyrrolo[1,2-a][1,4]diazacyclopentadecin-6-yl)carbamate]	5.01 to 35 nM	5.01 to 35 nM	–	–
CC(C)Oc1ccc(-c2cc(O[C@@H]3C[C@H]4C(=O)N[C@]5(C(=O)NS(=O)(=O)C6(C)CC6)C[C@H]5/C=C\CC[C@@H](C)C[C@@H](C)[C@H](NC(=O)OC(C)(C)C(F)(F)F)C(=O)N4C3)cc(-c3ccccn3)n2)cc1 [Compound 1021, 1,1,1-trifluoro-2-methylpropan-2-yl ((2R,6S,7R,9R,13aS,14aR,16aS,Z)-2-((6-(4-isopropoxyphenyl)-[2,2′-bipyridin]-4-yl)oxy)-7,9-dimethyl-14a-(((1-methylcyclopropyl)sulfonyl)carbamoyl)-5,16-dioxo-1,2,3,5,6,7,8,9,10,11,13a,14,14a,15,16,16a-hexadecahydrocyclopropa[e]pyrrolo[1,2-a][1,4]diazacyclopentadecin-6-yl)carbamate]	1.01 to 5 nM	0.51 to 1 nM	–	–
CC(C)Oc1ccc(-c2cc(O[C@@H]3C[C@H]4C(=O)N[C@]5(C(=O)NS(=O)(=O)C6(C)CC6)C[C@H]5/C=C\CC[C@@H](C)C[C@@H](C)[C@H](NC(=O)OC(C)(C)C(F)(F)F)C(=O)N4C3)cc(-c3nccs3)n2)cn1 [Compound 1046, 1,1,1-trifluoro-2-methylpropan-2-yl ((2R,6S,7R,9R,13aS,14aR,16aS,Z)-2-((6′-isopropoxy-6-(thiazol-2-yl)-[2,3′-bipyridin]-4-yl)oxy)-7,9-dimethyl-14a-(((1-methylcyclopropyl)sulfonyl)carbamoyl)-5,16-dioxo-1,2,3,5,6,7,8,9,10,11,13a,14,14a,15,16,16a-hexadecahydrocyclopropa[e]pyrrolo[1,2-a][1,4]diazacyclopentadecin-6-yl)carbamate]	1.01 to 5 nM	1.01 to 5 nM	–	–
C[C@@H]1CC/C=C\[C@@H]2C[C@@]2(C(=O)NS(=O)(=O)C2(C)CC2)NC(=O)[C@@H]2C[C@@H](Oc3ccnc(-c4nccs4)c3)CN2C(=O)[C@@H](NC(=O)OC(C)(C)C(F)(F)F)[C@H](C)C1 [Compound 1025, 1,1,1-trifluoro-2-methylpropan-2-yl ((2R,6S,7R,9R,13aS,14aR,16aS,Z)-7,9-dimethyl-14a-(((1-methylcyclopropyl)sulfonyl)carbamoyl)-5,16-dioxo-2-((2-(thiazol-2-yl)pyridin-4-yl)oxy)-1,2,3,5,6,7,8,9,10,11,13a,14,14a,15,16,16a-hexadecahydrocyclopropa[e]pyrrolo[1,2-a][1,4]diazacyclopentadecin-6-yl)carbamate]	1.01 to 5 nM	0.51 to 1 nM	–	–
